According to patent US12590069B2, “Crystalline salts of a plasma kallikrein inhibitor” (BioCryst Pharmaceuticals, Inc., priority 2018, dated 2026):
Structures can show the parent of a compound that is named as a salt.

Tests used:
[1] = Phase I multiple ascending oral dose pharmacokinetics in healthy subjects (plasma, LC-MS/MS); type: in vivo, human; conditions: for Ctau (trough plasma concentration at end of dosing interval) / Cmax / AUC / Tmax: healthy subjects; for Ctau (trough plasma concentration at end of dosing interval) / Cmax / AUC: geometric mean; for Cmax / AUC / Tmax: human, plasma, po; for Tmax: median
Protocol: As part of a Phase I, double-blind, placebo-controlled dose-ranging study, the pharmacokinetics of multiple ascending oral doses of Compound I·2 (HCl) were evaluated in healthy subjects. Four ascending dose cohorts were enrolled for dosing in a sequential manner. At the start, twelve subjects were randomized into each cohort for administration of a 7-day or 14-day course of study drug (n=10/cohort received Compound I·2 (HCl) and n=2/cohort received matching placebo) according to the following dose regimens: 125 mg Compound I·2 (HCl) or placebo once per day (QD) for 7 days in Cohort 1; 250 mg Compound I·2 (HCl) or placebo QD for 7 days in Cohort 2; 500 mg Compound I·2 (HCl) or placebo QD for 7 days in Cohort 3; […] Overall, 37 out of the 40 subjects receiving multiple doses of Compound I·2 (HCl) completed their respective dose regimens and were available for assessment of PK parameters at either Day 7 or Day 14.
Serial blood samples were drawn for pharmacokinetic analysis before dose administration on Day 7 or Day 14, and over the following 24 hours. The plasma samples for determination of Compound I·2 (HCl) concentrations were analyzed with the use of a validated LC-MS/MS (Liquid Chromatography with tandem mass spectrometry) bioanalytical assay.
Plasma Compound I·2 (HCl) concentration versus time profiles on Day 7 after QD oral administration of Compound I·2 (HCl) at 125, 250, and 500 mg QD, and on Day 14 after QD oral administration of Compound I·2 (HCl) at 350 mg QD, are shown in FIG. 3.
Table 1 provides a summary of plasma pharmacokinetic parameters [the maximum (peak) plasma drug concentration (Cmax), time (observed time point) to reach maximum (peak) plasma drug concentration following drug administration (Tmax), the observed trough plasma concentration at the end of the dosing interval (Ctau), and the area under the plasma concentration-time curve over the dosing interval (AUCtau)] following 7 or 14 days of multiple oral doses of Compound I·2 (HCl).

[2] = test system: hereditary angioedema (HAE); conditions: HAE patients; cited from earlier work
arthritis = conditions: rat models of arthritis; cited from earlier work
[3] = test system: lipopolysaccharide (LPS)- or bacterial-induced sepsis; conditions: LPS- or bacterial-induced sepsis in animals; cited from earlier work
[4] = test system: middle cerebral artery occlusion (MCAO); conditions: mouse MCAO model; cited from earlier work
sepsis = conditions: cited from earlier work
[5] = across the full 4-fold dose range (125 mg to 500 mg QD)
[6] = 125 mg, 125 mg QD oral, Day 7 (N = 10)
[7] = 350 mg, 350 mg QD oral, Day 14 (N = 9)
[8] = 350 mg, third dose column, 350 mg QD, Day 7 (N = 9), oral
[9] = 500 mg, second dose column, 500 mg QD, Day 7 (N = 9), oral

Q: For N#Cc1cccc([C@@H](NCC2CC2)c2ccc(F)c(NC(=O)c3cc(C(F)(F)F)nn3-c3cccc(CN)c3)c2)c1 [Compound I•2(HCl)], which “Ctau (trough plasma concentration at end of dosing interval)” value ([1]; 125 mg QD oral, Day 7 (N = 10)) is on record?
A: The value was 46.1 ng/mL.

Q: What about the “Increase in geometric mean AUCtau” value [1, 5] of the same molecule?
A: The value was 5.1 fold.

Q: And the “Increase in geometric mean Cmax” value [1, 5]?
A: Its value is 5.3 fold.

Q: And the Cmax [1, 6]?
A: Its Cmax is 97.8 ng/mL.

Q: What about the AUC [1, 6] of the same molecule?
A: Its AUC is 1600 ng·h/mL.

Q: What about the Tmax [1, 6] of the same molecule?
A: Its Tmax is 5 h.

Q: What about the Cmax [1, 7] of the same molecule?
A: Its Cmax is 363 ng/mL.

Q: And the AUC [1, 7]?
A: Its AUC is 5720 ng·h/mL.

Q: And the Cmax [1, 8]?
A: The Cmax was 517 ng/mL.

Q: What about the AUC [1, 8] of the same molecule?
A: The AUC was 8230 ng·h/mL.

Q: What about the Cmax [1, 9] of the same molecule?
A: The Cmax was 217 ng/mL.

Q: And the AUC [1, 9]?
A: The AUC was 3710 ng·h/mL.

Q: What about the Tmax [1, 9] of the same molecule?
A: Its Tmax is 6 h.

Q: What about the “Dose proportionality of exposure” value ([1]; increase from 125 mg to 250 mg QD and 250 mg to 500 mg QD) of the same molecule?
A: Its value is “reasonable dose proportionality”.

Q: And the “Ctau (trough plasma concentration at end of dosing interval)” value ([1]; second dose column, 500 mg QD, Day 7 (N = 9), oral)?
A: Its value is 101 ng/mL.

Q: Which “Efficacy in treating HAE” value [2] does the source give for NC(N)=NCCC[C@@H](N)C(=O)N[C@@H](CCCN=C(N)N)C(=O)N1CCC[C@H]1C(=O)N1C[C@H](O)C[C@H]1C(=O)NCC(=O)N[C@@H](Cc1cccs1)C(=O)N[C@@H](CO)C(=O)N1Cc2ccccc2C[C@@H]1C(=O)N1[C@H](C(=O)N[C@@H](CCCN=C(N)N)C(=O)O)C[C@@H]2CCCC[C@@H]21 [Icatibant] here?
A: Its value is “effective in treating HAE”.

Q: With Cl.NCC1CCC(C(=O)N[C@@H](Cc2ccccc2)C(=O)Nc2ccc(CC(=O)O)cc2)CC1 (stereo partly drawn) [PKSI-527] as the molecule, how does the Joint swelling (arthritis) read?
A: The Joint swelling was “reduce joint swelling”.

Q: With “H-D-Pro-Phe-Arg-chloromethylketone [H-D-Pro-Phe-Arg-chloromethylketone (CMK), reference compound]” as the molecule, how does the “Vascular permeability in multiple organs and lesions” value [3] read?
A: The value was “reduce vascular permeability in multiple organs and reduce lesions”.

B1: C1-inhibitor: physiological inhibitor of kallikrein in human plasma (protein, UniProt P05155 23-500, looked up)
Plasma protease C1 inhibitor: NPNATSSSSQDPESLQDRGEGKVATTVISKMLFVEPILEVSSLPTTNSTTNSATKITANTTDEPTTQPTTEPTTQPTIQPTQPTTQLPTDSPTQPTTGSFCPGPVTLCSDLESHSTEAVLGDALVDFSLKLYHAFSAMKKVETNMAFSPFSIASLLTQVLLGAGENTKTNLESILSYPKDFTCVHQALKGFTTKGVTSVSQIFHSPDLAIRDTFVNASRTLYSSSPRVLSNNSDANLELINTWVAKNTNNKISRLLDSLPSDTRLVLLNAIYLSAKWKTTFDPKKTRMEPFHFKNSVIKVPMMNSKKYPVAHFIDQTLKAKVGQLQLSHNLSLVILVPQNLKHRLEDMEQALSPSVFKAIMEKLEMSKFQPTLLTLPRIKVTTSQDMLSIMEKLEFFDFSYDLNLCGLTEDPDLQVSAMQHQTVLELTETGVEAAAASAISVARTLLVFEVQQPFLFVLWDQQHKFPVFMGRVYDPRA
Q: What does the source list for B1?
A: Infarct size [4]: reduced infarct size; Vascular permeability in multiple organs and lesions [3]: reduce vascular permeability in multiple organs and reduce lesions; Clinical outcome in sepsis patients (sepsis): Clinical improvement
